# Test results from PubChem BioAssay AID608 (Sanford-Burnham Center for Chemical Genomics, 2007).
# The source made the active and inactive calls. The rule behind the calls is not given here.
# Target: Peptidyl-prolyl cis-trans isomerase FKBP1A (Homo sapiens) (UniProt P62942)
# Test: FKBP12 binders, biophysical, NMR detection (AID 608)
# Conditions: NMR binding, purified FKBP12
# Peptidyl-prolyl cis-trans isomerase FKBP1A (Homo sapiens), sequence (P62942 whole entry, looked up): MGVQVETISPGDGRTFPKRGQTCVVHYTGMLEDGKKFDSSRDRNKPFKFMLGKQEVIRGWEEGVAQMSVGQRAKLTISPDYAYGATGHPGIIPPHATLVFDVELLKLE
row,SMILES,Kd
1,C=CCCCCCCCCCCCC(O)CC(O)COC(C)=O (stereo not drawn),> 4 mM (inactive)
2,COc1c(C(C)C)oc2cc3oc(=O)ccc3cc12,> 4 mM (inactive)
3,N#CCCn1ccnc1-c1ccccc1,> 4 mM (inactive)
4,CCOC(=O)CC1Sc2ccccc2NC1=S (stereo not drawn),> 4 mM (inactive)
5,CC1(C)CC2C1CCC1(C)OC1CCC2(C)O (stereo not drawn),> 4 mM (inactive)
6,Cc1nc(SCC(=O)c2c[nH]c3ccccc23)n[nH]1,inactive
7,Cc1cc[n+](-c2nc([O-])sc2C=O)cc1,> 4 mM (inactive)
8,CNC(=O)C(=O)Nc1ccc(C)c(C)c1,> 4 mM (inactive)
9,O=C(O)c1cc(F)cc2c1OCOC2,> 4 mM (inactive)
10,Cn1ncc(SCc2ccco2)c(Cl)c1=O,> 4 mM (inactive)
11,O=c1nc(NCc2ccco2)sc2ncccc12,> 4 mM (inactive)
12,OC1CC2CCC1C2 (stereo not drawn),> 4 mM (inactive)
13,COc1ccc(-c2ccc(OC)cc2C(=O)O)cc1,> 4 mM (inactive)
14,CC1(C)Cn2c(nnc2-c2ccccc2)S1,> 4 mM (inactive)
15,Cc1cccc(C(C)C)c1NC(=O)c1cccnc1,> 4 mM (inactive)
16,Cc1ccc(NS(=O)(=O)N2CCOCC2)cc1,inactive
17,O=C1CC(NCc2ccco2)C(=O)NN1 (stereo not drawn),> 4 mM (inactive)
18,Cc1nc2ccc(NC(=O)N3CCSCC3)cc2s1,> 4 mM (inactive)
19,Cc1cc(C)n(CC(=O)O)n1,> 4 mM (inactive)
20,COc1cc(-c2coc3cc(OC)c(OC)c(OC)c3c2=O)cc(OC)c1OC,> 4 mM (inactive)

row,SMILES,Kd
1,CN1C(=O)/C(=C/c2ccc(O)cc2O)SC1=S,> 4 mM (inactive)
2,Fc1ccc(Br)cc1/C=N/n1cnnc1,> 4 mM (inactive)
3,COC(=O)c1ccc(/C=C2/NC(=S)NC2=O)cc1,> 4 mM (inactive)
4,CC(=O)O[C@@H]1CC2C(C)(C)CCC(=O)[C@]2(C)C2CC[C@@]3(C)[C@H](c4ccoc4)OC(=O)C4OC43[C@@]21C (stereo partly drawn),> 4 mM (inactive)
5,Cc1cc2nc3c(=O)[nH]c(=O)nc-3n(CC(O)C(O)C(O)CO)c2cc1C (stereo not drawn),> 4 mM (inactive)
6,Cc1cc(N)n(C2CCOC(C)(C)C2)n1 (stereo not drawn),> 4 mM (inactive)
7,CCn1nnnc1Oc1ccc(Cl)cc1,> 4 mM (inactive)
8,O=S(=O)(Cc1ccccc1Cl)Nc1ccccn1,> 4 mM (inactive)
9,Cc1ccc(S(=O)(=O)CC(=O)N(C)C)cc1,> 4 mM (inactive)
10,CC1(C)C(=O)[C@@H]2O[C@@H]2[C@@]2(C)C1C[C@@H](O)[C@]1(C)C2CC[C@@]2(C)[C@H](c3ccoc3)OC(=O)C3OC321 (stereo partly drawn),> 4 mM (inactive)
11,CC(=O)Nc1ccc(-c2cn3ccsc3n2)cc1,> 4 mM (inactive)
12,COc1nc(C#N)c(N2CCOCC2)o1,> 4 mM (inactive)
13,CCOc1ccc(C(=O)c2ccncc2)cc1,> 4 mM (inactive)
14,CC(=O)O[C@@H]1c2c(ccc3ccc(=O)oc23)OC(C)(C)[C@@H]1OC(=O)CC(C)C,> 4 mM (inactive)
15,CCOC(=O)C1CCC(=O)c2cccn21 (stereo not drawn),> 4 mM (inactive)
16,O=C(Nn1cnnc1)c1cccc(C(F)(F)F)c1,> 4 mM (inactive)
17,C=C(C)[C@@H]1CC[C@]2(CO)CC[C@]3(C)[C@H](CCC4[C@@]5(C)CC[C@H](O)C(C)(C)C5CC[C@]43C)C12 (stereo partly drawn),> 4 mM (inactive)
18,O=C(c1cnsn1)N1CCN(c2ccccn2)CC1,> 4 mM (inactive)
19,COCCn1cnc2cc(C)c(C)cc21,> 4 mM (inactive)
20,Cn1cc(Cl)c(C(=O)NC2CCCCCC2)n1,> 4 mM (inactive)

row,SMILES,Kd
1,O=C(Nc1ccon1)c1cccc(Cl)c1,> 4 mM (inactive)
2,O=C(c1cc2ccccc2o1)c1nc2c(n1O)CCCCC2,> 4 mM (inactive)
3,CC(=O)Nc1ccc(S(=O)(=O)NCC2CCCO2)cc1 (stereo not drawn),> 4 mM (inactive)
4,Cc1cc(C(=O)Nc2cccnc2)no1,> 4 mM (inactive)
5,Cc1cc2c(=O)n(C)c(SCC(N)=O)nc2s1,> 4 mM (inactive)
6,O=C1CN(C(=O)CN2CCOCC2)c2ccccc2N1,> 4 mM (inactive)
7,Nc1ccc(OC(F)(F)F)cc1,> 4 mM (inactive)
8,O=C1C[C@@H](c2ccccc2)Oc2cc(O)cc(O)c21,> 4 mM (inactive)
9,O=C1N=c2ccccc2=C1c1[nH]c(=S)[nH]c1O,> 4 mM (inactive)
10,C[C@H](CCC(=O)O)[C@H]1CCC2C3C(CC[C@@]21C)[C@@]1(C)CC[C@@H](O)C[C@H]1C[C@H]3O (stereo partly drawn),> 4 mM (inactive)
11,O=S(=O)(Nc1cc(Cl)cc(Cl)c1)N1CCOCC1,inactive
12,COc1ccccc1NC(=O)CCC(=O)O,> 4 mM (inactive)
13,CCOC(=O)C1CCN(c2ncnc3nc[nH]c23)CC1,> 4 mM (inactive)
14,O=C(NC1=NCCS1)c1ccc([N+](=O)[O-])cc1Cl,> 4 mM (inactive)
15,CSc1ncc(CO)n1Cc1ccccc1,> 4 mM (inactive)
16,CC(C)CCCC(C)C1CCC2C3=CC[C@H]4C[C@@H](O)CC[C@]4(C)C3CC[C@@]21C (stereo partly drawn),> 4 mM (inactive)
17,O=C(NCN1CCOCC1)c1cccnc1,> 4 mM (inactive)
18,S=C(NC1CC1)NN1CCOCC1,> 4 mM (inactive)
